The record followed here is PubChem BioAssay AID651581 (Sanford-Burnham Center for Chemical Genomics, 2012).

Activity calls are given as the source filed them. The rule behind the calls is not given here.

As usually defined, the IC50 is the midpoint of a concentration-inhibition curve.

Test [1] has as its target Hypoxia-inducible factor 1-alpha (Homo sapiens) (UniProt Q16665). The test is described as follows: potency against HIF reporters across cell lines – luminescence, panel, selectivity assay for HIF-2a inhibitor project, dose response (AID 651581). The settings on record: human cell HIF reporter, HIF-1a.
In test [2] the target is Endothelial PAS domain-containing protein 1 (Homo sapiens) (UniProt Q99814). Described as above. Conditions: human cell HIF reporter.

Chain of Hypoxia-inducible factor 1-alpha (Homo sapiens) (Q16665 whole entry, looked up, the tested form may be a part): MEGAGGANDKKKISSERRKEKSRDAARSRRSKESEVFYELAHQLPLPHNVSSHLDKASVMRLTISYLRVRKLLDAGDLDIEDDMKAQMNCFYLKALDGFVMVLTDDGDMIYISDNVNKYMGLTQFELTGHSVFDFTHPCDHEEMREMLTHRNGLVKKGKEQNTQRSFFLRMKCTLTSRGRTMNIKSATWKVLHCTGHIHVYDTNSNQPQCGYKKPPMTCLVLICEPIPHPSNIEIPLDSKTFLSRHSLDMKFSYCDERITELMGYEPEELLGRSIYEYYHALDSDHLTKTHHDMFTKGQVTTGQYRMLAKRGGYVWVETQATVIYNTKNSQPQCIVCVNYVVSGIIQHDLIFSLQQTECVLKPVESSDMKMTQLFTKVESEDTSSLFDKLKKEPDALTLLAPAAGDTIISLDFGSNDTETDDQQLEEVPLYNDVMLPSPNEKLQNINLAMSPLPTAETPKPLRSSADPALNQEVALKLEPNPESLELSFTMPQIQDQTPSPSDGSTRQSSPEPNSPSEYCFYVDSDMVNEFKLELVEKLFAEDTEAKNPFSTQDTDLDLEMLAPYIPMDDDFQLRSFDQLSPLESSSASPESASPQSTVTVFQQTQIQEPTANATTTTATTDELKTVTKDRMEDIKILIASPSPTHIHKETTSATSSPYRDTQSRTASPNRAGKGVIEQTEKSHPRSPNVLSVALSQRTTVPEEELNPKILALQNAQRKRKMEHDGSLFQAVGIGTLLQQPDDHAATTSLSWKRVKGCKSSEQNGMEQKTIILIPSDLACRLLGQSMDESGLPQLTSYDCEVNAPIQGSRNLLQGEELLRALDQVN

As for `COC(=O)CSc1nnc(-c2sc3ccccc3c2Cl)o1`, in test [1] (mean of runs), the IC50 entry was “inactive”. The IC50 in test [1] (run 1) is 2.3 µM; in test [1] (run 2), 2.49 µM; in test [2] (HIF-2a PANC, mean of runs), 4.99 µM; in test [2] (HIF-2a PANC, run 1) it was 4.35 µM; in test [2] (HIF-2a PANC, run 2) it was 5.63 µM; in test [2] (HIF-2a, mean of runs) it was 2.36 µM. Further, the IC50 in test [2] (HIF-2a, run 1) is 2.08 µM; in test [2] (HIF-2a, run 2), 2.64 µM.

Consider `Nc1nc2ccc(S(=O)(=O)c3ccc4nc(N)sc4c3)cc2s1`, for which the IC50 was 71.7 µM in test [1] (run 1); greater than 99 µM in test [1] (run 2); > 99 µM (inactive) in test [2] (HIF-2a PANC, mean of runs); greater than 99 µM in test [2] (HIF-2a PANC, run 1); greater than 99 µM in test [2] (HIF-2a PANC, run 2); 14.7 µM in test [2] (HIF-2a, run 1). The molecule also yielded an IC50 in test [2] (HIF-2a, run 2) of 14.7 µM. For the same molecule, the IC50 entry in test [2] (HIF-2a, mean of runs) was “inactive”.

With `Nc1ccc(-c2cc3ccccc3c(=O)o2)cc1`, the IC50 in test [1] (run 1) is 0.423 µM; in test [1] (run 2) it was greater than 99 µM; in test [2] (HIF-2a PANC, mean of runs) it was 0.7 µM; in test [2] (HIF-2a PANC, run 1), 0.782 µM; in test [2] (HIF-2a PANC, run 2), 0.618 µM; in test [2] (HIF-2a, mean of runs), less than 1 µM. Also, the IC50 in test [2] (HIF-2a, run 1) is less than 1 µM; in test [2] (HIF-2a, run 2), less than 1 µM.

Take `COC(=O)COc1ccc(-c2nccc(-c3ccccn3)n2)cc1`: the IC50 result in test [1] (mean of runs) is “inactive”. Moreover, the IC50 is 0.274 µM in test [1] (run 1); 0.637 µM in test [1] (run 2); 2.88 µM in test [2] (HIF-2a PANC, mean of runs); 3.28 µM in test [2] (HIF-2a PANC, run 1); 2.48 µM in test [2] (HIF-2a PANC, run 2); 1.07 µM in test [2] (HIF-2a, mean of runs). For the same molecule, the half-inhibitory concentration (IC50) in test [2] (HIF-2a, run 1) was determined as 1.04 µM; in test [2] (HIF-2a, run 2) it was 1.11 µM.

For the molecule `CCCCOC(=O)c1ccc(NC(=S)NC(=O)c2c(Br)c(C)nn2C)cc1`, the IC50 is greater than 99 µM in test [1] (run 1); greater than 99 µM in test [1] (run 2); 8.11 µM in test [2] (HIF-2a PANC, run 1); 16.2 µM in test [2] (HIF-2a PANC, run 2); 0.894 µM in test [2] (HIF-2a, mean of runs); 0.821 µM in test [2] (HIF-2a, run 1). In test [2] (HIF-2a, run 2), this molecule came in with an IC50 of 0.968 µM. For the same molecule, the IC50 result in test [2] (HIF-2a PANC, mean of runs) is “inactive”.

For the molecule `S=C(c1ccc(-c2ccccc2)cc1)N1CCOCC1`, the IC50 entry in test [1] (mean of runs) is “inactive”. For the same molecule, the IC50 was 1.48 µM in test [1] (run 1); 2.53 µM in test [1] (run 2); 2.79 µM in test [2] (HIF-2a PANC, mean of runs); 2.51 µM in test [2] (HIF-2a PANC, run 1); 3.07 µM in test [2] (HIF-2a PANC, run 2); 1.06 µM in test [2] (HIF-2a, mean of runs). The IC50 in test [2] (HIF-2a, run 1) was 0.98 µM; in test [2] (HIF-2a, run 2), 1.15 µM.

Take `CC(=O)Nc1ccc(NC(=O)c2c([N+](=O)[O-])c(C(C)(C)C)nn2C)cc1`: the IC50 result in test [1] (mean of runs) was “inactive”; in test [2] (HIF-2a, mean of runs) it was “inactive”. The IC50 is 9.31 µM in test [1] (run 1); 22.8 µM in test [1] (run 2); 11 µM in test [2] (HIF-2a PANC, mean of runs); 11.2 µM in test [2] (HIF-2a PANC, run 1); 10.8 µM in test [2] (HIF-2a PANC, run 2); 10.8 µM in test [2] (HIF-2a, run 1). Moreover, the IC50 in test [2] (HIF-2a, run 2) is 11.6 µM.

`Cc1cc(C)c(C)c(S(=O)(=O)ON2C(=O)c3ccccc3C2=O)c1C`: the IC50 in test [1] (run 1) is greater than 99 µM; in test [1] (run 2) it was greater than 99 µM; in test [2] (HIF-2a PANC, run 1), 50.9 µM; in test [2] (HIF-2a PANC, run 2), 21.9 µM; in test [2] (HIF-2a, mean of runs) it was 8.77 µM; in test [2] (HIF-2a, run 1), 8.96 µM. Besides, the IC50 in test [2] (HIF-2a, run 2) is 8.59 µM. Moreover, the IC50 result in test [2] (HIF-2a PANC, mean of runs) was “inactive”.

`COCCn1c(C)cc(C(=O)CSc2nnc(C)s2)c1C`: in test [1] (mean of runs), the IC50 entry was “inactive”. Moreover, the IC50 in test [1] (run 1) is 8.55 µM; in test [1] (run 2) it was 18.9 µM; in test [2] (HIF-2a PANC, mean of runs), 7.96 µM; in test [2] (HIF-2a PANC, run 1), 3.81 µM; in test [2] (HIF-2a PANC, run 2), 12.1 µM; in test [2] (HIF-2a, mean of runs), 5.99 µM. Also, the IC50 in test [2] (HIF-2a, run 1) was found to be 6.5 µM; in test [2] (HIF-2a, run 2), 5.48 µM.

On to `COc1ccc(-c2cnc3c(NC=O)cc(-c4cccc(NS(C)(=O)=O)c4)cn23)cc1OC`, for which the IC50 entry in test [1] (mean of runs) is “inactive”; in test [2] (HIF-2a, mean of runs), “inactive”. Also, the IC50 in test [1] (run 1) was 30.3 µM; in test [1] (run 2) it was 24.8 µM; in test [2] (HIF-2a PANC, mean of runs), 4.5 µM; in test [2] (HIF-2a PANC, run 1), 3.94 µM; in test [2] (HIF-2a PANC, run 2), 5.05 µM; in test [2] (HIF-2a, run 1), 13 µM. Also, in test [2] (HIF-2a, run 2), the IC50 was found to be 10.8 µM.

For the molecule `COC(=O)COc1ccc(-c2nccc(-c3ccc(Br)cc3)n2)cc1`, the IC50 in test [1] (run 1) was greater than 99 µM; in test [1] (run 2), greater than 99 µM; in test [2] (HIF-2a PANC, run 1) it was 6.31 µM; in test [2] (HIF-2a PANC, run 2), greater than 99 µM; in test [2] (HIF-2a, mean of runs), 7.51 µM; in test [2] (HIF-2a, run 1) it was 7.55 µM. In addition, the IC50 in test [2] (HIF-2a, run 2) was determined as 7.47 µM.

Regarding `N#C/C(=C\c1ccccc1)C(=O)N(c1ccccn1)C1CCCCC1`, the IC50 result was “inactive” in test [1] (mean of runs); “inactive” in test [2] (HIF-2a PANC, mean of runs); “inactive” in test [2] (HIF-2a, mean of runs). In addition, the half-maximal inhibitory concentration (IC50) in test [1] (run 1) amounted to 25.8 µM; in test [1] (run 2), 24.7 µM; in test [2] (HIF-2a PANC, run 1), 98.1 µM; in test [2] (HIF-2a PANC, run 2), 71.2 µM; in test [2] (HIF-2a, run 1), 14.9 µM; in test [2] (HIF-2a, run 2), 13.7 µM.

As to `O=C(O)c1cccc(-c2nc3ccccc3[nH]2)c1`, the IC50 in test [1] (run 1) was greater than 99 µM; in test [1] (run 2), greater than 99 µM; in test [2] (HIF-2a PANC, mean of runs), > 99 µM (inactive); in test [2] (HIF-2a PANC, run 1) it was greater than 99 µM; in test [2] (HIF-2a PANC, run 2), greater than 99 µM; in test [2] (HIF-2a, run 1), 14.5 µM. This molecule also had an IC50 in test [2] (HIF-2a, run 2) of 15.5 µM. The IC50 result in test [2] (HIF-2a, mean of runs) was “inactive”.

In the case of `C(=NNc1ccc2ccccc2n1)c1ccccn1`, the IC50 in test [1] (mean of runs) was 23.5 µM; in test [1] (run 1), 22 µM; in test [1] (run 2) it was 24.9 µM; in test [2] (HIF-2a PANC, run 1), 44.8 µM; in test [2] (HIF-2a PANC, run 2), 51.1 µM; in test [2] (HIF-2a, mean of runs), 5.57 µM. The IC50 in test [2] (HIF-2a, run 1) was found to be 5.49 µM; in test [2] (HIF-2a, run 2), 5.65 µM. Also, in test [2] (HIF-2a PANC, mean of runs), the IC50 entry was “inactive”.

With `CCN(CC)CCCC(C)n1c2nc(=O)[nH]c(=O)c-2nc2cc(Cl)ccc21` (centres undefined), in test [1] (mean of runs), the IC50 entry is “inactive”. For the same molecule, the IC50 in test [1] (run 1) was 18.1 µM; in test [1] (run 2), 15.8 µM; in test [2] (HIF-2a PANC, mean of runs), 3.53 µM; in test [2] (HIF-2a PANC, run 1) it was 2.56 µM; in test [2] (HIF-2a PANC, run 2), 4.5 µM; in test [2] (HIF-2a, mean of runs), 9.02 µM. Further, the IC50 amounted to 8.43 µM in test [2] (HIF-2a, run 1) and 9.61 µM in test [2] (HIF-2a, run 2).

In the case of `Cc1ccc(S(=O)(=O)c2ncccc2[N+](=O)[O-])cc1`, the IC50 result in test [1] (mean of runs) is “inactive”. The IC50 in test [1] (run 1) is 21.3 µM; in test [1] (run 2), 23 µM; in test [2] (HIF-2a PANC, mean of runs) it was 18.7 µM; in test [2] (HIF-2a PANC, run 1), 20.6 µM; in test [2] (HIF-2a PANC, run 2), 16.9 µM; in test [2] (HIF-2a, mean of runs) it was 9.71 µM. Besides, the IC50 in test [2] (HIF-2a, run 1) was found to be 10 µM; in test [2] (HIF-2a, run 2), 9.38 µM.

For the molecule `Cn1c(/C=C/c2ccc(Cl)cc2)c([N+](=O)[O-])c(=O)n(C)c1=O`, the IC50 entry is “inactive” in test [1] (mean of runs) and “inactive” in test [2] (HIF-2a, mean of runs). For the same molecule, the IC50 was 26 µM in test [1] (run 1); 24.3 µM in test [1] (run 2); 34.3 µM in test [2] (HIF-2a PANC, mean of runs); 29.4 µM in test [2] (HIF-2a PANC, run 1); 39.1 µM in test [2] (HIF-2a PANC, run 2); 12.5 µM in test [2] (HIF-2a, run 1). In test [2] (HIF-2a, run 2), this molecule returned a concentration for half-maximal inhibition (IC50) of 11.9 µM.

On to `CCOC(=O)c1cccc(COC(=O)c2cccc(-c3nnc(-c4ccccc4)o3)c2)c1`, for which the IC50 in test [1] (run 1) was greater than 99 µM; in test [1] (run 2) it was greater than 99 µM; in test [2] (HIF-2a PANC, mean of runs), > 99 µM (inactive); in test [2] (HIF-2a PANC, run 1), greater than 99 µM; in test [2] (HIF-2a PANC, run 2), greater than 99 µM; in test [2] (HIF-2a, run 1), 13.2 µM. Moreover, in test [2] (HIF-2a, run 2), the IC50 came to 16.5 µM. Also, the IC50 result in test [2] (HIF-2a, mean of runs) is “inactive”.
